Values quoted from earlier work in US20090118352A1, “Broad spectrum microbicidal and spermicidal compositions and methods” (ESAWTECH, LTD., priority 2007, published 2009).

Experiments:
[1] = system: epithelial cells in the vagina
HIV [2] = settings: phase III trial
HIV [3] = settings: clinical trial in women, stopped 2007

Row | Substance | effect on epithelial cells in the vagina [1] | HIV transmission rate versus placebo (HIV [2]; N-9 group) | efficacy in preventing HIV transmission (HIV [2]; UN Joint Programme on HIV/AIDS, 2002) | HIV infections, active group versus placebo group (HIV [3])
1 | NONOXYL-9 [N-9] | can disrupt epithelial cells in the vagina | marginally higher | no efficacy | 
2 | cellulose sulfate |  |  |  | higher number of HIV infections in the active group compared with the placebo group
